From patent publication US10278909B2, “Composition suitable to preserve the physiological condition of skin and hair and reestablish their regenerative functions” (GIULIANI S.P.A., priority 2014, dated 2019)

System: Human Hair Follicle Outer Root Sheath Cells (HHFORSC)
Assay: ATP assay in Human Hair Follicle Outer Root Sheath Cells (Abcam ATP-assay kit, absorbance 570 nm)
Format: cell-based
Settings: 24 h treatment, carnitine 10 mg/ml, caffeine 10 mg/ml, arginine 30 mg/ml (alone or combined); for ATP % vs control: control = culture medium only = 100
Procedure: Human Hair Follicle Outer Root Sheath Cells (HHFORSC), supplied by Innoprot, are isolated by ScienCell Research Labs from the outer sheath of the root of human hair. The cell line was grown in culture medium for mesenchymal stem cells (MSCM): 500 mL basal medium, 20% fetal bovine serum (FBS), 1% growth supplement for mesenchymal stem cells (MSCGS), 1% penicillin/streptomycin (P/S solution) and maintained in 25 cm^2 culture flasks at 37° C. and 5% CO2. Before proceeding with plating the cells, the flask cells is coated with poly-L-lysine (2 μg/cm^2). Every two days, the confluent cultures are divided 1:3-1:6, after washing with DPBS (Dulbecco's Phosphate-Buffered Saline), using a solution of T/E (trypsin/EDTA solution) and TNS (Trypsin Neutralization Solution) and seeded at 2-5×^4 cell/cm^2, 37° C., 5% CO2. When the cells (HHFORSC) reach about 80% confluence, they are detached with trypsin/EDTA and seeded at a density of 1×10^6 cells/ml in 12-well plates and then incubated at 37° C., 5% CO2 (24 h). When the cells reach about 80% confluence, they are treated with samples of the following compounds or mixtures of compounds, tested at the concentrations described hereafter: • Carnitine 10 mg/ml • Caffeine 10 mg/ml • Arginine 30 mg/ml • Carnitine 10 mg/ml+Caffeine 10 mg/ml • Carnitine 10 mg/ml+Arginine 30 mg/ml • Caffeine 10 mg/ml+Arginine 30 mg/ml • Carnitine 10 mg/ml+Caffeine 10 mg/ml+Arginine 30 mg/ml The cells treated with culture medium only were used as control. All the cells were incubated at 37° C., 5% CO2 for 24 h. […] The samples were then lysed by pipetting repeatedly and centrifuged to remove insoluble materials, and finally stored on ice until use. […] The samples were incubated at room temperature for 30 minutes, in the dark. The absorbance was read at a wavelength of 570 nm with a reference filter of 630 nm in a microplate reader Biotek ELX808 using a predetermined protocol and after having correctly defined a layout of the plate. The ATP concentration was calculated by interpolating the data of the standard curve after subtraction of the blank: [ATP] (nmol/μl)=Ts/Sv where Ts is the amount of ATP from the standard curve (nmol); SV is the volume of the sample (before dilution) added to the sample wells (μl).

Row | Compound | Δ % (increase in the production of cellular ATP vs untreated control) [%] | ATP % vs control [%]
1 | N=C(N)NCCC[C@H](N)C(=O)O [Arginine] | 32.944 | 132.94
2 | C[N+](C)(C)CC(O)CC(=O)[O-] (stereo not drawn) [Carnitine] | 34.164 | 134.16
3 | Cn1c(=O)c2c(ncn2C)n(C)c1=O [Caffeine] | 26.843 | 126.84
